Measurements published in paper PMC4639711, “The Helicase Activity of Hyperthermophilic Archaeal MCM is Enhanced at High Temperatures by Lysine Methylation” (Frontiers in Microbiology, 2015).

Assays:
Assay type in all cases: biochemical
sisMCM (MCM) = biological target: T1, sisMCM (MCM) (Saccharolobus islandicus, UniProt F0NF15, K280M/K281M); test: ATPase assay, [γ-32P]ATP, PEI cellulose TLC; details: 1 mM ATP, 100 nM protein, 10 mM magnesium acetate, pH 8.0, 65°C, 30 min; labelled compound; methylation-mimic mutant
T1 construct: recombinant, pGEX-6P-1 in E. coli BL21(DE3) CodonPlus RIL; GST tag removed with PreScission protease; apparent mass 75 kDa; hexamer

aKMT4 [1] = biological target: T2, aKMT4 (Saccharolobus islandicus, UniProt F0NBH8); test: 3H-methyl incorporation into sisMCM, SDS-PAGE and autoradiography; details: methyl acceptor sisMCM (2 μM), also automethylation, 50°C, labelled compound
T2 construct: gene SiRe_1449

aKMT4 [2] = biological target: T3, aKMT4 (Saccharolobus islandicus, UniProt F0NBH8, G38R); test: as above; details: methyl acceptor sisMCM (2 μM), 50°C, labelled compound, methyltransferase-deficient mutant, no activity seen
T3 construct: gene SiRe_1449; recombinant, overexpressed in E. coli BL21(DE3) CodonPlus RIL; purified as in Niu et al. 2013; apparent mass 18 kDa
T3 sequence (F0NBH8 whole entry G38R): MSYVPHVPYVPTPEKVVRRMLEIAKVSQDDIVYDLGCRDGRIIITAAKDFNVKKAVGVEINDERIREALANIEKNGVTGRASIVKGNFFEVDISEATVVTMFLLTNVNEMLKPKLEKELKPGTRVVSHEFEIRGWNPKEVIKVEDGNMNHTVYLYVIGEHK

T1 sequence (F0NF15 entry or part of it K280M/K281M): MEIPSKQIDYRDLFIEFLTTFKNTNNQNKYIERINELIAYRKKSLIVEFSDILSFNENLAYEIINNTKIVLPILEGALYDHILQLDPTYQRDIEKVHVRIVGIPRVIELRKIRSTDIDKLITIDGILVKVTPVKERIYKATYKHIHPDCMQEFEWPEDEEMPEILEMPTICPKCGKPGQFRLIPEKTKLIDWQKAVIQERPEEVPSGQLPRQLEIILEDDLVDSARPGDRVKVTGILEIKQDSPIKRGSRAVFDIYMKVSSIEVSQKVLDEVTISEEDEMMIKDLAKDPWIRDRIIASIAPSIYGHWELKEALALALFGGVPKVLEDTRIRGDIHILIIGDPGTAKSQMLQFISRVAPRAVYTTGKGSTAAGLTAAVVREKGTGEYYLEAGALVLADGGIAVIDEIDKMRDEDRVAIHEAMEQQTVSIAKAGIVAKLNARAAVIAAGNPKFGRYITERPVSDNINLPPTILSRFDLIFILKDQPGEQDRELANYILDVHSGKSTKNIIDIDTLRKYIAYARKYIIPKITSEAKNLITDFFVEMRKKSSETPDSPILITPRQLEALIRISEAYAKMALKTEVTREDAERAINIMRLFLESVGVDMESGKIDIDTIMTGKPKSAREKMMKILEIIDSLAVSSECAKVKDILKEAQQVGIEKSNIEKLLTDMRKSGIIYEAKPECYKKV
T2 sequence (F0NBH8 whole entry): as the sequence (F0NBH8 whole entry G38R) above, with R38G counted along it

Row | SMILES | ATPase assay, [γ-32P]ATP, PEI cellulose TLC (sisMCM (MCM)) | 3H-methyl incorporation into sisMCM, SDS-PAGE and autoradiography (aKMT4 [1]) | 3H-methyl incorporation into sisMCM, SDS-PAGE and autoradiography (aKMT4 [2])
1 | Nc1ncnc2c1ncn2[C@@H]1O[C@H](COP(=O)(O)OP(=O)(O)OP(=O)(O)O)[C@@H](O)[C@H]1O [ATP] | As for ATPase, K280M/K281M showed moderately decreased activity as wild type |  | 
2 | C[S+](CC[C@H](N)C(=O)O)C[C@H]1O[C@@H](n2cnc3c(N)ncnc32)[C@H](O)[C@@H]1O (stereo partly drawn) [AdoMet] |  | We noticed potent ^3H-methyl incorporation into sisMCM protein as well as aKMT4 itself | no tritium incorporation was observed in the presence of a methyltransferase-deficient mutant aKMT4-G38R
